Results taken from US20070292440A1, “CD154 blockade therapy for pancreatic islet tissue transplantation” (priority 1997, published 2007).
Several values for one entry are separate records, joined by “and”; a condition that tells them apart may be missing. Equal values may be shown once.

Columns and labels:
[1] = test system: islet allografts in pancreatectomized baboons; test: Baboon model of islet cell transplantation (ICT) for pancreatectomy-induced diabetes; format: in vivo, Baboon (Papio hamadryas)
Method: Identification of donor-recipient pairs. Peripheral blood mononuclear cells (PBMC) from 10 potential recipients (Baboons, Papio hamadryas, male and female, 1-2 years of age, approximately 4.0 kg) from the Mannheimer facility (Homestead, Fla.) were used as responders against PBMC from 11 male donors (over 2 years of age, purchased from the Southwest Foundation in Texas) in a one way mixed leukocyte culture (MLC). The baboon MLC was performed via standardized methods for human MLC. […] The donors were of a sufficient size that enough islets and bone marrow were obtained from 1 donor to allow for transplantation into 2 recipients. […] An attempt was made to choose two recipients with similar MLC reactivity to the designated donor, and donor-recipient pairs with varying degrees of alloreactivity were chosen.
Islet/bone marrow preparation and administration.
For studies on enhancing tolerance, vertebral body was harvested from the pancreas donor and processed to obtain donor bone marrow cells (DBMC) generally according to routine modifications of methods for processing of human vertebral bodies. For recipients of donor bone marrow, infusions were administered on days 5 and II post ICT. A total dose of 10^9 nucleated cells per kg recipient body weight was given.
Pancreatectomy and ICT. […] The number of IEQ was determined immediately prior to transplantation. Total pancreatectomy was performed according to established surgical techniques. After completion of the total pancreatectomy, a 20G angiocatheter was inserted into one of the mesenteric vessel tributaries of the portal vein, and ICT was accomplished by gravity infusion of the islet preparation over a 10 min period.
Immunosuppression and post-operative care. FK506 (tacrolimus) was chosen as the immunosuppressant, as this drug is currently utilized in human ICT. FK506 administration commenced at 5 days prior to ICT. A dosage of 0.1 mg/kg/day, i.m. was administered to recipient baboons. Drug levels were monitored daily and dosage was adjusted to maintain trough levels of approximately 15 ng/ml.
For the first post-operative day (study day 1, or POD 1), the baboons were given intravenous fluids. The animals were subsequently fed a diet containing 60 g of carbohydrate per day, with 45 g of monkey biscuits (supplemented with viokase) and 15 g of fruit.
Monitoring. Fasting and post-prandial blood glucose (FG and PPG, respectively) were monitored via heel stick and blood testing with a Glucometer Elite, and at least once weekly, a blood sample was drawn to obtain plasma for testing of FG levels with a Beckman glucose analyzer. In general a blood sample was also obtained to confirm unusually high readings. […] At approximately 3 months post-transplant, testing was decreased to every other week. The blood samples were used for phenotyping of peripheral blood to assess leukocyte subsets and determination of CBC and chemistries, 5c8 and anti-5c8 levels, insulin and C-peptide levels, and chimerism. Blood was drawn periodically for retesting of MLC reactivity to donor and 3rd party antigens.

[2] = test system: islet allograft function (glucose metabolism) in baboons; test: Intravenous glucose tolerance testing (IVGTT) of baboon islet allograft recipients; format: in vivo, Baboon (Papio hamadryas)
Method: Intravenous Glucose Tolerance Testing (IVGTT). It has been previously shown that in vivo islet-cell function tests give an accurate reflection of changes in β cell mass. (McCulloch et al., Diabetes 40: 673-679, 1991). Intravenous glucose tolerance tests were carried out after a 16- to 18-h overnight fast, as previously described (Lehmann et al., J. Med. Primatol. 26: 312-321, 1997). In brief, blood samples were collected at −10, −5, and 0 min. Then 0.5 g glucose per kg of body weight in a 50% glucose solution was injected over 20 seconds into the saphenous vein. 1.5 ml samples were collected from the contralateral femoral artery at 1, 3, 5, 7, 10, 15, 20, 25, 30 min post injection. Thus, a total of 12 blood samples were withdrawn over a […] period. The samples were drawn into glass tubes containing 0.05 ml 15% fluid EDTA and 0.2 ml trasylol (500 K.I.U. aprotinin/ml blood), placed on ice, and centrifuged within 10 minn. Plasma was then frozen at −80° C. and assayed later for glucose, immunoreactive insulin, and glucagon.
Statistical analysis and calculations. Results are set forth as means ±SEM. The glucose disappearance constant (Kg) was calculated from the IVGTT as the slope of the decline of the loge (In) plasma glucose between 10 and 30 min. after the glucose injection, multiplied by 100. The acute insulin response to glucose (AIRG) was calculated as the incremental area under the insulin curve (AUC) between 1-10 min after the IV glucose injection. The incremental responses (AUCGlucose, AUCInsulin) were calculated by means of the trapezoidal rule with subtraction of the basal values from 1 to 30 minutes, Data were analyzed with Statistica for Windows software (Version 5.0, 1997. Statsoft Inc., Tulsa, Okla., USA).

[3] = test system: islet allografts in pancreatectomized diabetic rhesus monkeys; test: Rhesus monkey model of ICT for pancreatectomy-induced diabetes; format: in vivo; settings: induction days -1, 0, 3, 10 + monthly maintenance, monotherapy
Method: Unless specified, all procedures were generally as described above for the baboon model studies.
Animal procedures. SPF rhesus monkeys, 2-7 years of age, are readily available from COVANCE (Alice, Tex.) or the Mannheimer Foundation, Inc. (Homestead, Fla.) or similar vendors. Upon admission, all monkeys are examined to determine their general health, physical condition, and psychological status. All surgical procedures are carried under aseptic conditions. Animals are fasted for 12-18 hours before surgery and will be pre-anesthetized with i.m. ketamine (10 mg/kg) and atropine (0.04 mg/kg). Once the animal is sedated, an endotracheal tube and an i.v. catheter are promptly installed. The endotracheal tube is used to protect the airway and provide easy access for emergency drugs. The animals are anesthetized with an isoflurane and oxygen combination. Normal saline solution for injection is infused through the catheter throughout the entire ICT procedure at a rate of 10 ml/kg/hour.
A midline incision is made to gain access to the abdominal organs. For both donor and recipient animals, a total pancreatectomy is performed with preservation of the duodenum. […]
Monitoring. […] Fasting blood glucose (FG) levels are determined by using a lancet to prick the heel, to obtain a small drop of blood for placement on a glucometer strip. […]

Compound | islet allograft survival versus control or FK506 treated animals ([1]; 4 out of 5 baboons) | Duration (in PODs) of Insulin Independence ([1]; Baboon, Induction + Anti-Rejection regimen, animal received a reduced dose of 5c8) [PODs] | POD until which graft was maintained after treatment for rejection ([1]; Baboon, induction 20 mg/kg days -1, 3, 10 + monthly maintenance from POD 28, bone marrow infusions PODs 5 and 11, listed as 5C8) | graft survival of functioning islet allografts ([1]; Baboon, other animals in the study, range of survivals, listed as hu5c8) | adverse effect on insulin secretion or overall insulin sensitivity ([2]; baboon studies) | FPIS (first phase insulin secretion) after islet transplantation ([2]; baboons on maintenance therapy, follow-up 16 weeks) | Kg values (glucose disappearance constant) in repeated IVGTT ([2]; baboons treated at the time of rejection, after 8 postoperative weeks) | Kg values (glucose disappearance constant) in repeated IVGTT ([2]; baboons treated with maintenance doses) | islet allograft function and rejection episodes [3] | day of islet allograft rejection ([1]; Baboon, FK506 alone) [day] | day of islet allograft rejection ([1]; Baboon, FK506 in combination with stem cell selected marrow) [day] | day of islet allograft rejection ([1]; Baboon, FK506 in combination with whole bone marrow) [day]
Anti-CD154: humanized MAb having the antigen-specific binding properties of MAb 5c8; CD154 (CD40L) blocking agent | extended islet allograft survival | 8 | 162 POD and 124 POD | > 125 days and > 220 days | no adverse effect | well preserved | decline | Stable values | functional islet allografts are maintained without the occurrence of rejection episodes |  |  | 
C=CC[C@@H]1/C=C(\C)C[C@H](C)C[C@H](OC)[C@H]2O[C@@](O)(C(=O)C(=O)N3CCCC[C@H]3C(=O)O[C@H](/C(C)=C/[C@@H]3CC[C@@H](O)[C@H](OC)C3)[C@H](C)[C@@H](O)CC1=O)[C@H](C)C[C@@H]2OC [FK506, tacrolimus, reference compound] |  |  |  |  |  |  |  |  |  | 10 | 10 | 8
